Laboratory results: patent publication US20230149409A1, “TREATMENT OF HUMAN PAPILLOMAVIRUS-ASSOCIATED CANCERS BY PD-L1 INHIBITORS” (priority 2021, published 2023)

Assays:
[1] = test system: PD-L1 (U2OS/PD-L1 cells, Jurkat-PD-1-SHP cells); test: Src Homology Region 2 Domain-containing Phosphatase (SHP) assay; format: cell-based; details: Homo sapiens; U2OS/PD-L1 + Jurkat-PD-1-SHP cells, 2 hours
Procedure: Example 1B. Src Homology Region 2 Domain-containing Phosphatase (SHP) Assay
U2OS/PD-L1 cells (DiscoveRx Corporation) were maintained in McCoy’s 5A medium with addition of 10% FBS, 0.25 µg/mL Puromycin. After removing the culture media, the cell medium was replaced with assay medium (RPMI1640 medium with 1% FBS). The U2OS/PD-L1 cells were then added in 384-well black clear bottom assay plate (CELLCOAT® Tissue Culture Plates, Greiner Bio-One) at 5000 cells per well in 20 uL assay medium. Test compounds were prepared by serial dilution in DMSO and 125 nL compound were first transferred to the 384 REMP plate well (Thermofisher) by ECHO liquid handler (Labcyte) followed with addition of 27.5 uL assay medium. 5 µL/well compounds in the assay medium were transferred to the cell plate with 0.05% DMSO in the final assay at 0.25 µM. Jurkat-PD-1-SHP cells (DiscoveRx Corporation) were cultured in RPMI1640 medium supplemented with 10% FBS, 250 µg/mL Hygromycin B, 500 µg/mL G418. After the replacement of culture media with assay medium, 5,000 Jurkat-PD-1-SHP cells in 20 µL were dispensed into each well. The assay plate was incubated at 37° C., 5% CO2 for 2 hours before 2.5 uL PathHunter reagent 1 (DiscoveRx Corporation) were added to each well. The assay plate was shaken for 1 min at 350 rpm in the dark followed with addition of 10 uL PathHunter reagent 2 (DiscoveRx Corporation). Chemiluminescent signal was recorded with TopCount reader (Perkin Elmer) after incubation at room temperature for 1 hour. Wells with DMSO were served as the positive controls and wells containing no cells were used as negative controls. IC50 determination was performed by fitting the curve of percentage of control activity versus the log of the compound concentration using the GraphPad Prism 6.0 software.

[2] = molecular target: T1, PD-⅟PD-L1 (recombinant human PD-L1 protein and human PD-1 protein) (Homo sapiens, UniProt Q9NZQ7); test: Homogeneous Time-Resolved Fluorescence (HTRF) PD-1/PD-L1 binding assay; details: 3 nM PD1, 10 nM PD-L1, 25° C., PBS pH 7.4
T1 construct: Recombinant human PD-L1 protein (19-238) with a His-tag at the C-terminus; purchased AcroBiosystems PD1-H5229 (PD-L1); PD1-H5257 (PD-1)
Procedure: Homogeneous Time-Resolved Fluorescence (HTRF) PD-⅟PD-L1 Binding Assay
The assays were conducted in a standard black 384-well polystyrene plate with a final volume of 20 uL. Inhibitors were first serially diluted in DMSO and then added to the plate wells before the addition of other reaction components. The final concentration of DMSO in the assay was 1%. The assays were carried out at 25° C. in the PBS buffer (pH 7.4) with 0.05% Tween-20 and 0.1% BSA. […] PD-L1 and PD-1 proteins were diluted in the assay buffer and 10 uL was added to the plate well. Plates were centrifuged and proteins were preincubated with inhibitors for 40 minutes. The incubation was followed by the addition of 10 uL of HTRF detection buffer supplemented with Europium cryptate-labeled anti-human IgG (PerkinElmer-AD0212) specific for Fc and anti-His antibody conjugated to SureLight®-Allophycocyanin (APC, PerkinElmer-AD0059H). […] Final concentrations in the assay were - 3 nM PD1, 10 nM PD-L1, 1 nM europium anti-human IgG and 20 nM anti-His-Allophycocyanin. IC50 determination was performed by fitting the curve of percent control activity versus the log of the inhibitor concentration using the GraphPad Prism 5.0 software.

[3] = test system: PD-L1 (PD-L1 aAPC/CHO-K1 cells, Jurkat-PD-1-NFAT effector cells); test: Nuclear Factor of Activated T-cells (NFAT) assay; format: cell-based; details: Cricetulus griseus; PD-L1 aAPC/CHO-K1 + Jurkat-PD-1-NFAT cells, 24 hours
Procedure: Nuclear Factor of Activated T-cells (NFAT) Assay
PD-L1 aAPC/CHO-K1cells (Promega) were maintained in F-12 medium with addition of 10% FBS, 200 µg/mL Hygromycin B, 250 µg/mL Geneticin (G418). […] The culture media of PD-L1 aAPC/CHO-K1 cells were first replaced with assay medium (RPMI1640 medium with 1% FBS). The PD-L1 aAPC/CHO-K1cells were then added in a white 384-well white clear bottom assay plate (CELLCOAT® Tissue Culture Plates, Greiner Bio-One) at 8000 per well in 10 uL assay medium. […] 5 uL compounds in the assay medium were transferred to the cells with 0.4% DMSO in the final assay at 2 µM. After removing the culture media, 10,000 Jurkat-PD-1-NFAT effector cells in 5 µL assay medium was dispensed into each well. The assay plate was incubated at 37° C., 5% CO2 for 24 hours. […] After 8 minutes incubation at room temperature, luminescence was read at with Pherastar microplate reader (BMG Labtech). The fold of induction (FOI) was calculated based on the ratio of luminescence normalized to the DMSO wells within each assay plate. The maximum percentage of induction was reported based on the ratio between the highest FOI of each compound and the maximum FOI of control compound within each assay plate. Wells with DMSO were served as the negative controls and wells containing control compound with the highest FOI were used as positive controls. EC50 determination was performed by fitting the curve of percent control activity versus the log of the compound concentration using the GraphPad Prism 6.0 software.

[4] = molecular target: T2, PD-L1 on CD14+ cells in human whole blood (Homo sapiens, UniProt Q9NZQ7); test: PD-L1 whole blood internalization assay; format: cell-based; details: 1 ng/mL interferon γ, CD14+ gated, 24 hour
T2 construct: Cells were gated on CD14+ (BD Biosciences) and PD-L1 expression determined by mean fluorescence intensity; host or cells: CD14+ cells in normal human whole blood, stimulated with human interferon gamma
Procedure: PD-L1 Whole Blood Internalization Assay
To determine PD-L1 internalization in human whole blood, normal human blood (Biological Specialty Corp, Colmar. PA) was incubated in the presence or absence of a concentration range of test compounds and 1 ng/mL human interferon γ (R&D Systems Inc. Minn. MN) in a 96 well “2 mL Assay Block” (Corning, Corning NY) for 18-20 hours at 37 °C. Blood was then stained with PD-L1 (MIH1, eBioscience; or BD Biosciences San Jose, CA), CD14 (Life Technologies, Carlsbad, CA) for 30 minutes in the dark at room temperature. Whole Blood/red cells were lysed/fixed (lysis buffer BD Biosciences) for 5 minutes at 37 °C in the dark and then centrifuged at 1600 RPM for 5 minutes. Cells were resuspended in Stain Buffer (BD Bioscience, San Jose, CA) and transferred into 96 well round bottom plates (Coming). Cells were gated on CD14+ (BD Biosciences) and PD-L1 expression determined by mean fluorescence intensity (MFI) (BD LSRFortessa® X-20). IC50 determination was performed by fitting the curve of compound percent inhibition versus the log of the compound concentration using the GraphPad Prism 7.0 software.

T1 sequence (Q9NZQ7 19-238): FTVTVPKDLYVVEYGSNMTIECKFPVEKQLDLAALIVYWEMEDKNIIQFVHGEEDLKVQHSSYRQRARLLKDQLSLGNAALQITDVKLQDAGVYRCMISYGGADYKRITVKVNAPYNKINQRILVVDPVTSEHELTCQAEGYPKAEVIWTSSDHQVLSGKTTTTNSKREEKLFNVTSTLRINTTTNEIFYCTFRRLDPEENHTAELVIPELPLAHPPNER
T2 sequence (Q9NZQ7 19-290): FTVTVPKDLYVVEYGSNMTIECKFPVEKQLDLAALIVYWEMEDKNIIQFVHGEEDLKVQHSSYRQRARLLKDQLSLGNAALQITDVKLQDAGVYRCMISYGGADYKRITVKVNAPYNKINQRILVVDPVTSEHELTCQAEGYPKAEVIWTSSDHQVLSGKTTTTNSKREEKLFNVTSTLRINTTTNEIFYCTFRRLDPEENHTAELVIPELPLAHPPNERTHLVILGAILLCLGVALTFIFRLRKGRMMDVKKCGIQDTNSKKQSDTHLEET

**Q.** Which results are given for `CN1CCc2c(nc(C(=O)Nc3cccc(-c4cccc(NC(=O)c5nc6c(n5C)CCN(CC[C@H]5CC[C@H](C(=O)O)CC5)C6)c4C#N)c3Cl)n2C)C1` [Compound 19, trans-4-(2-(2-((2′-chloro-2-cyano-3′-(1,5-dimethyl-4,5,6,7-tetrahydro-1H-imidazo[4,5-c]pyridine-2-carboxamido)-[1,1′-biphenyl]-3yl)carbamoyl)-1-methyl-1,4,6,7-tetrahydro-5H-imidazo[4,5-c]pyridin-5-yl)ethyl)cyclohexane-1-carboxylic acid]?
**A.** IC50 [1]: < 10 nM; IC50 [2]: < 10 nM; EC50 [3]: < 100 nM; IC50 [4]: < 100 nM

**Q.** How did the IC50 [1] turn out when `CCN(C)CC(=O)N1Cc2nc(-c3cccc(-c4cccc(NC(=O)c5nc6c(n5C)CCN(C[C@H]5CC[C@H](C(=O)O)CC5)C6)c4Cl)c3C)sc2C1` [Compound 20, trans-4-((2-(2-chloro-3′-(5-(2-(ethyl(methyl)amino)acetyl)-5,6-dihydro-4H-pyrrolo[3,4-d]thiazol-2-yl)-2′-methylbipheiryl-3-ylcarbamoyl)-1-methyl-6,7-dihydro-1H-imidazo [4,5-c]pyridin-5 (4H)-yl)methyl)cyclohexane-1-carboxylic acid] was run?
**A.** < 10 nM

**Q.** And the IC50 [2]?
**A.** < 10 nM

**Q.** And the EC50 [3]?
**A.** < 500 nM

**Q.** What about the IC50 [4] of the same compound?
**A.** < 500 nM

**Q.** For `CCN(C)CC(=O)N1Cc2nc(-c3cccc(-c4cccc(NC(=O)c5nc6c(n5C)CCN(C[C@H]5CC[C@@H](C(=O)O)CC5)C6)c4Cl)c3C)sc2C1` [Compound 21, cis-4-((2-(2-chloro-3′-(5-(2-(ethyl(methyl)amino)acetyl)-5,6-dihydro-4H-pyrrolo[3,4-d]thiazol-2-yl)-2′-methylbiphenyl-3-ylcarbamoyl)-1-methyl-6,7-dihydro-1H-imidazo [4,5-c]pyridin-5 (4H)-yl)methyl)cyclohexane-1-carboxylic acid], which IC50 [1] is on record?
**A.** < 10 nM

**Q.** And the IC50 [2]?
**A.** < 10 nM

**Q.** And the EC50 [3]?
**A.** < 100 nM

**Q.** And the IC50 [4]?
**A.** < 100 nM

**Q.** What does the source list for `CCN(C)CC(=O)N1Cc2nc(-c3cccc(-c4cccc(NC(=O)c5nc6c(n5C)CCN(CCC5CCC(C(=O)O)CC5)C6)c4Cl)c3C)sc2C1` (stereo not drawn) [Compound 22, 4-(2-(2-(2-chloro-3′-(5-(2-(ethyl(methyl)amino)acetyl)-5,6-dihydro-4H-pyrrolo[3,4-d]thiazol-2-yl)-2′-methylbiphenyl-3-ylcarbamoyl)-1-methyl-6,7-dihydro-1H-imidazo[4,5-c]pyridin-5(4H)-yl)ethyl)cyclohexane-1-carboxylic acid]?
**A.** IC50 [1]: < 10 nM; IC50 [2]: < 10 nM; EC50 [3]: < 100 nM; IC50 [4]: < 500 nM

**Q.** What does the source list for `Cc1c(-c2nc3c(s2)CN(C(=O)CN(C)C(C)C)C3)cccc1-c1cccc(NC(=O)c2nc3c(n2C)CCN(CCC2CCC(C(=O)O)CC2)C3)c1Cl` (stereo not drawn) [Compound 23, 4-(2-(2-(2-chloro-3′-(5-(2-(isopropyl(methyl)amino)acetyl)-5,6-dihydro-4H-pyrrolo[3,4-d]thiazol-2-yl)-2′-methylbiphenyl-3-ylcarbamoyl)-1-methyl-6,7-dihydro-1H-imidazo[4,5-c]pyridin-5(4H)-yl)ethyl)cyclohexane-1-carboxylic acid]?
**A.** IC50 [1]: < 10 nM; IC50 [2]: < 10 nM; EC50 [3]: < 100 nM; IC50 [4]: < 100 nM

**Q.** Which IC50 [1] does the source give for `C[C@@H](O)CN1CCc2c(nc(C(=O)Nc3cccc(-c4cccc(NC(=O)c5nc6c(n5C)CCN(CCC57CCC(C(=O)O)(CC5)C7)C6)c4Cl)c3Cl)n2C)C1` [Compound 29] here?
**A.** < 10 nM

**Q.** What about the IC50 [2] of the same compound?
**A.** < 10 nM

**Q.** And the EC50 [3]?
**A.** < 10 nM

**Q.** And the IC50 [4]?
**A.** < 100 nM

**Q.** `Cn1c(C(=O)Nc2cccc(-c3cccc(NC(=O)c4nc5c(n4C)CCN(CC46CCC(C(=O)O)(CC4)C6)C5)c3Cl)c2Cl)nc2c1CCN(CCC13CCC(C(=O)O)(CC1)C3)C2` [Compound 31, 4-((2-((3′-(5-(2-(4-carboxybicyclo[2.2.1]heptan-1-yl)ethyl)-1-methyl-4,5,6,7-tetrahydro-1H-imidazo[4,5-c]pyridine-2-carboxamido)-2,2′-dichloro-[1,1′-biphenyl]-3-yl)carbamoyl)-1-methyl-1,4,6,7-tetrahydro-5H-imidazo[4,5-c]pyridin-5-yl)methyl)bicyclo[2.2.1]heptane-1-carboxylic acid] was tested. Which IC50 [1] did it give?
**A.** < 10 nM

**Q.** And the IC50 [2]?
**A.** < 10 nM

**Q.** And the EC50 [3]?
**A.** < 100 nM

**Q.** What about the IC50 [4] of the same compound?
**A.** < 100 nM

**Q.** With `Cc1c(NC(=O)c2nc3c(n2C)CCN(CCC24CCC(C(=O)O)(CC2)C4)C3)cccc1-c1cccc(NC(=O)c2nc3c(n2C)CCN(CCC24CCC(C(=O)O)(CC2)C4)C3)c1Cl` [Compound 32, 4,4′-(((((2-chloro-2′-methyl-[1,1′-biphenyl]-3,3′-diyl)bis(azanediyl))bis(carbonyl))bis(1-methyl-1,4,6,7-tetrahydro-5H-imidazo[4,5-c]pyridine-2,5-diyl))bis(ethane-2,1-diyl))bis(bicyclo[2.2.1]heptane-1-carboxylic acid)] as the compound, how does the IC50 [1] read?
**A.** < 10 nM

**Q.** What about the IC50 [2] of the same compound?
**A.** < 10 nM

**Q.** What about the EC50 [3] of the same compound?
**A.** < 100 nM

**Q.** And the IC50 [4]?
**A.** < 100 nM

**Q.** Which IC50 [1] does the source give for `Cn1c(C(=O)Nc2cccc(-c3cccc(NC(=O)c4nc5c(n4C)CCN(CCC46CCC(C(=O)O)(CC4)C6)C5)c3C#N)c2Cl)nc2c1CCN(CCC13CCC(C(=O)O)(CC1)C3)C2` [Compound 33, 4,4′-(((((2-chloro-2′-cyano-[1,1′-biphenyl]-3,3′-diyl)bis(azanediyl))bis(carbonyl))bis(1-methyl-1,4,6,7-tetrahydro-5H-imidazo[4,5-c]pyridine-2,5-diyl))bis(ethane-2,1-diyl))bis(bicyclo[2.2.1]heptane-1-carboxylic acid)] here?
**A.** < 10 nM

**Q.** And the IC50 [2]?
**A.** < 10 nM

**Q.** And the EC50 [3]?
**A.** < 100 nM

**Q.** And the IC50 [4]?
**A.** < 100 nM
